Literature values, collected in US8993551B2, “Composition for the regulation of the human immune system and the prevention and treatment of diseases thereof” (priority 2002, dated 2015).
Like-named read-outs stand apart in the source and are kept apart here.

Experiments:
[1] = tested on: LNCaP human prostate cancer cells
[2] = tested on: CD4 lymphocyte count; conditions: AIDS patients
[3] = tested on: human breast cancer cells
[4] = of total dietary amount consumed / of intake, mammals
[5] = tested on: HT-29 human colon cancer cells

SMILES	inhibition of prostate cancer cell growth [1]	increase in cell death ([1]; prostate cancer cells)	CD4 lymphocyte count [2]	inhibition of breast cancer cell growth ([3]; after 3 days)	inhibition of breast cancer cell growth ([3]; after 5 days)	increase in rate of cell death ([3]; breast cancer cells)	intestinal absorption [4]	reduction in cell growth [5]
CC[C@H](CC[C@@H](C)[C@H]1CC[C@H]2[C@@H]3CC=C4C[C@@H](O)CC[C@]4(C)[C@H]3CC[C@]12C)C(C)C [beta-sitosterol]	24%	400%	maintain CD4 lymphocyte count	66%	80%	600%	~5%	55%
CC(C)CCC[C@@H](C)[C@H]1CC[C@H]2[C@@H]3CC=C4C[C@@H](O)CC[C@]4(C)[C@H]3CC[C@]12C [cholesterol]							45-54%	
